Assay results as given in patent publication US7045626B2, “Quinoline derivatives, process for preparing them and use for the treatment of diseases mediated by s-CD23” (SmithKline Beecham p.l.c., priority 2001, dated 2006).

How the values were obtained:
[1] = target: T1, MMP-3 (Homo sapiens, UniProt P08254); assay: General MMP inhibition assay (fluorescence quench); type: biochemical; conditions: inhibitor up to 100 uM
T1 construct: purchased Calbiochem
Procedure: (§1) General MMP Inhibition Assays:
(§2) Inhibition of matrix metalloprotease activity was determined using a fluorescence quench assay with appropriate substrate. For example, MMP activity was determined using MMP activated using trypsin, according to Lark et al, Connective Tissue Res. 25, 52 (1990). The MMP is incubated at room temperature in a microtitre plate in a total volume of 100 ul, containing 0.15 M Tris Cl, 15 mM CaCl2, 0.2 M NaCl, pH 7.6 (assay buffer); inhibitor at concentrations up to 100 uM, with no more than 2% DMSO final concentration, 10 uM substrate (such as SDP-3815-PI for MMP-1, Peptides International). The MMP concentration is <10 nM, and determined empirically with the appropriate substrate to give at least a 20-fold increase in fluorescence emission in 30 min. Fluorescent excitation wavelength was 355 nm, emission wavelength 400–460 nm, and data points are collected to generate slope (change in fluorescence with time). Percent inhibition for each concentration is calculated from the slope at time zero, and IC50 values from the concentration dependence. MMP-1, 2, 3, 7, 9, 13, 14 may all be assayed in the same manner, using commercially available substrates reported to be effective for each enzyme. Enzymes were obtained from Calbiochem and activated using the same trypsin method.

[2] = target: T2, MMP-13 (Homo sapiens, UniProt P45452); assay: General MMP inhibition assay (fluorescence quench); type: biochemical; conditions: inhibitor up to 100 uM
T2 construct: purchased Calbiochem
Procedure: as §1, §2

[3] = test system: release of soluble CD23 from RPMI 8866 cell plasma membranes; assay: RPMI 8866 cell membrane CD23 cleavage activity assay; type: biochemical, human; conditions: RPMI 8866 plasma membranes, 37° C., sCD23 by EIA; read-out: IC50, inhibition of production of sCD23
Procedure: Procedure 1: The ability of test compounds to inhibit the release of soluble CD23 was investigated by use of the following procedure.
RPMI 8866 Cell Membrane CD23 Cleavage Activity Assay:
Plasma membranes from RPMI 8866 cells, a human Epstein-Barr virus transformed B-cell line (Sarfati et al., Immunology 60 [1987] 539–547) expressing high levels of CD23 are purified using an aqueous extraction method. Cells resuspended in homogenization buffer (20 mM HEPES pH 7.4, 150 mM NaCl, 1.5 mM MgCl2, 1 mM DTT) are broken by N2 cavitation in a Parr bomb and the plasma membrane fraction mixed with other membranes is recovered by centrifugation at 10,000×g. […]
The fractionated membranes are incubated at 37° C. for times up to 4 hrs to produce fragments of CD23 which are separated from the membrane by filtration in 0.2 micron Durapore filter plates (Millipore) after quenching the assay with a non-selecitve MMP inhibitor, e.g. 5 uM Preparation 1 from WO 95/31457 ([4-(N-Hydroxyamino)-2-(R)-isobutyl-3-(S)-(2-thiophenethiomethyl)succinyl]-(S)-phenylalanine-N-methylamide sodium salt, prepared according to the procedure described in Example 11 of WO 90/05719). sCD23 released from the membrane is determined using the EIA kit from The Binding Site (Birmingham, UK) or a similar one utilising MHM6 anti-CD23 mAb [Rowe et al., Int. […]

[4] = target: T3, human recombinant collagenase (Homo sapiens, UniProt P03956); assay: Collagenase inhibition assay; type: biochemical; conditions: 37° C., 18 h, 3H type 1 bovine collagen; read-out: IC50, collagenase inhibition (procedure 2)
T3 construct: made in house; host or cells: E. coli
T3 sequence (P03956 100-469): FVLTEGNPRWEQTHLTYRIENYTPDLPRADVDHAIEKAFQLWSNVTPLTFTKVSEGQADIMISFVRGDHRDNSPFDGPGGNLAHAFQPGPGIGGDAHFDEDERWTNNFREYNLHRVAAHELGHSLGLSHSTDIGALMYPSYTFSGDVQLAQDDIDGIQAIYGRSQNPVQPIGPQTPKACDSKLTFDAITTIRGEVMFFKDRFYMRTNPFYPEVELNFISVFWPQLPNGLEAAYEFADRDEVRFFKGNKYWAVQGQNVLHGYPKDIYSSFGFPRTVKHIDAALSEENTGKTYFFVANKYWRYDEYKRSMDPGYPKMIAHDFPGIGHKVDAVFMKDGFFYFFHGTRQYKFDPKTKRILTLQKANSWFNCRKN
Procedure: Procedure 2: The ability of test compounds to inhibit matrix metalloproteases was investigated using the following procedures.
Collagenase Inhibition Assay:
The potency of compounds to act as inhibitors of collagenase was determined by the method of Cawston and Barrett (Anal. Biochem. 99, 340–345, 1979), hereby incorporated by reference, whereby a 1 mM solution of the inhibitor being tested or dilutions thereof, was incubated at 37° C. for 18 h with collagen and human recombinant collagenase, from synovial fibroblasts cloned, expressed and purified from E. Coli, (buffered with 150 mM Tris, pH 7.6, containing 15 mM calcium chloride, 0.05% Brij 35, 200 mM sodium chloride and 0.02% sodium azide). The collagen was acetylated ^3H type 1 bovine collagen prepared by the method of Cawston and Murphy (methods in Enzymology 80, 711,1981) The samples were centrifuged to sediment undigested collagen and an aliquot of the radioactive supernatant removed for assay on a scintillation counter as a measure of hydrolysis. The collagenase activity in the presence of 1 mM inhibitor, or dilution thereof, was compared to activity in a control devoid of inhibitor and the results reported as that concentration effecting 50% of the collagenase (IC50).

T1 sequence (P08254 100-477, species assumed): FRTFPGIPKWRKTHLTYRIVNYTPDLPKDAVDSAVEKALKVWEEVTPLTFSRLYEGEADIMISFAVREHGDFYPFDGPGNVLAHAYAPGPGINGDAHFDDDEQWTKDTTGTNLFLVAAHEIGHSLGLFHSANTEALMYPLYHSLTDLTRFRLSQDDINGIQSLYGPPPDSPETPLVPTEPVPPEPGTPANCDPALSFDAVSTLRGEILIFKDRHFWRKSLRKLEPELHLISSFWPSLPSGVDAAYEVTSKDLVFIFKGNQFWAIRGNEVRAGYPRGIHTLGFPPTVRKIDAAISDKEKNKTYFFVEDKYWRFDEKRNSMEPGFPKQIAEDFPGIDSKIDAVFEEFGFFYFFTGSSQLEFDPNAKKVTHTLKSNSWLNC

IC50 [1]: > 100 µM | IC50 [2]: 6 µM | IC50 [3]: 0.06 µM | IC50 [4]: 100 µM
Structure (SMILES): O=CN(O)[C@H](CS(=O)(=O)Cc1cnc2ccccc2c1)[C@H]1CCCO1 [Example 1]
